{"source": "patent US10577366B2", "about": "“Crystalline forms of a compound that inhibits bromodomain” (Plexxikon Inc., priority 2017, dated 2020)", "format_in_all_cases": "physicochemical", "key": {"[1]": {"test": "Dynamic vapor sorption (DVS) isotherm, solid form stability as a function of humidity", "conditions": "for Water uptake: DVS at 25° C., up to 80% RH, solids pre-dried at 0% RH; for Form change after DVS test according to XRPD: after DVS at 25° C., 0% RH to 95% RH", "procedure": "DVS was measured via a SMS (Surface Measurement Systems) DVS Intrinsic. The relative humidity at 25° C. were calibrated against deliquescence point of LiCl, Mg(NO3)2 and KCl.\nDVS isotherm plot was collected at 25° C. to investigate the solid form stability as a function of humidity for Form A. Solids were pre-dried at 0% RH to remove surface solvent or water before DVS.\nDVS isotherm plot was collected at 25° C. to investigate the solid form stability as a function of humidity for Form C. Solids were pre-dried at 0% RH to remove surface solvent or water before DVS. Water uptake of 0.6% was observed up to 80% RH (FIG. 9)."}, "[2]": {"test": "Solid form conversion on heating (XRPD / DSC)", "procedure": "For XRPD analyses provided herein, a PANalytical Empyrean X-ray powder diffract meter was used, and the XRPD parameters used are summarized in Table 1.\nDSC was performed using a TA Q200/Q2000 DSC from TA Instruments. TGA data were collected using a TA Q500/Q5000 TGA from TA Instruments. […]\nCompound I Form C was prepared via anti-solvent addition in acetone/n-heptane at RT. […] (peak temperature) followed by two endotherms at 232.8° C. and 265.7° C. (onset temperature). […] It is also contemplated that Form C may be an anhydrate based on the characterization results. […]"}, "[3]": {"test": "Slurry turnover between forms in ACN at various temperatures", "conditions": "for Solid form after slurry turnover (XRPD): 1:1 mass mixture with Form A in ACN", "procedure": "The conversion relationship between anhydrous Compound I Form A and Compound I Form C was investigated via slurry turnover at various temperatures (RT (25±3° C.) or 50° C.) as follows.\n(§1) About 5 mg of Compound I Form A was added to 1.0 mL of ACN, and the suspension was stirred at 50° C. for 2 hours to reach equilibrium. The suspension was filtered into a vial, which included 5 mg of Compound I Form A and Compound I Form C (mass ratio of 1:1). The mixture was stirred at a desired temperature for 4 days, and the solids were then analyzed by XRPD and DSC.\nThe conversion relationship between anhydrate Compound I Form A and Compound I Form E was investigated via slurry turnover at various temperatures (RT (25±3° C.) or 50° C.) and water activities as follows.\nas §1, with “For various temperatures: About” for “About”, “included 2” for “included 5”, “Form E” for “Form C”, “by XRPD.” for “by XRPD and DSC.”"}, "[4]": {"test": "Slurry turnover between Form A and E at various water activities", "conditions": "21 days, XRPD", "procedure": "For various water activities: About 10 mg of Compound I Form A was added to 1.0 mL EtOH/H2O with different aw (Table 12), and the suspension was stirred at RT for 1 hour to reach equilibrium. The suspension was filtered into a vial, which included 2 mg of Compound I Form A and Compound I Form E (mass ratio of 1:1). The mixture was stirred at the desired aw for 21 days, and the solids were then analyzed by XRPD."}, "[5]": {"conditions": "stirred 4 days at RT (25±3° C.)"}}, "note": "“Also recorded” adds a separate entry of the source.", "data": [{"smiles": "Cc1noc(C)c1-c1cnc2c(-c3ccc(C(=O)O)cc3)cn(C(C)(c3ccccn3)c3ccccn3)c2c1", "note": "[Form A, 4-(1-(1,1-di(pyridin-2-yl)ethyl)-6-(3,5-dimethylisoxazol-4-yl)-1H-pyrrolo[3,2-b]pyridin-3-yl)benzoic acid]", "values": [{"measurement": "Water uptake", "setting": "[1]", "value": 0.5, "unit": "%"}, {"measurement": "Form change after DVS test according to XRPD", "setting": "[1]", "value": "No form change"}, {"measurement": "Hygroscopicity", "setting": "[1]; judged from DVS water uptake up to 80% RH at 25° C.", "value": "slightly hygroscopic"}, {"measurement": "Relative stability of Form A versus Form C", "setting": "[2]; based on the Burger-Ramberger Rules, before melting", "value": "monotropically more stable than Form C"}, {"measurement": "Stability relationship between Form A and Form C", "setting": "[3]; from slurry turnover at RT and 50° C. and DSC, monotropic", "value": "more stable"}]}, {"smiles": "Cc1noc(C)c1-c1cnc2c(-c3ccc(C(=O)O)cc3)cn(C(C)(c3ccccn3)c3ccccn3)c2c1", "note": "[Form B, 4-(1-(1,1-di(pyridin-2-yl)ethyl)-6-(3,5-dimethylisoxazol-4-yl)-1H-pyrrolo[3,2-b]pyridin-3-yl)benzoic acid]", "values": [{"measurement": "Solid form after heating (XRPD)", "setting": "[2]; after heating to 110° C.", "value": "converted to Form A"}]}, {"smiles": "Cc1noc(C)c1-c1cnc2c(-c3ccc(C(=O)O)cc3)cn(C(C)(c3ccccn3)c3ccccn3)c2c1", "note": "[Form C, 4-(1-(1,1-di(pyridin-2-yl)ethyl)-6-(3,5-dimethylisoxazol-4-yl)-1H-pyrrolo[3,2-b]pyridin-3-yl)benzoic acid]", "values": [{"measurement": "Water uptake", "setting": "[1]", "value": 0.6, "unit": "%"}, {"measurement": "Form change after DVS test according to XRPD", "setting": "[1]", "value": "Phase transition of Form C to Form A"}, {"measurement": "Solid form after heating (XRPD/DSC)", "setting": "[2]; after heating above the exothermic peak (174.5° C., peak temperature)", "value": "completely converted to Form A; also recorded: convert to Form A"}, {"measurement": "Solid form after slurry turnover (XRPD)", "setting": "[3]; stirred 4 days at 50° C.", "value": "converted to Form A"}, {"measurement": "Solid form after slurry turnover (XRPD)", "setting": "[3]; [5]", "value": "converted to Form A"}]}, {"smiles": "Cc1noc(C)c1-c1cnc2c(-c3ccc(C(=O)O)cc3)cn(C(C)(c3ccccn3)c3ccccn3)c2c1", "note": "[Form D, 4-(1-(1,1-di(pyridin-2-yl)ethyl)-6-(3,5-dimethylisoxazol-4-yl)-1H-pyrrolo[3,2-b]pyridin-3-yl)benzoic acid]", "values": [{"measurement": "Solid form after heating (XRPD)", "setting": "[2]; after heating to 145° C. and cooling to ambient conditions", "value": "converted to Form C"}]}, {"smiles": "Cc1noc(C)c1-c1cnc2c(-c3ccc(C(=O)O)cc3)cn(C(C)(c3ccccn3)c3ccccn3)c2c1", "note": "[Form E, 4-(1-(1,1-di(pyridin-2-yl)ethyl)-6-(3,5-dimethylisoxazol-4-yl)-1H-pyrrolo[3,2-b]pyridin-3-yl)benzoic acid]", "values": [{"measurement": "Solid form after heating (XRPD)", "setting": "[2]; after heating to 150° C.", "value": "converted to Form A"}, {"measurement": "Solid form after slurry turnover (XRPD)", "setting": "[3]; stirred 4 days at 50° C.", "value": "converted to Form A"}, {"measurement": "Solid form after slurry turnover (XRPD)", "setting": "[3]; [5]", "value": "converted to Form A"}, {"measurement": "Final Form", "setting": "[4]; Aw 0.298 (EtOH/H2O 952:48 v/v)", "value": "converted to Form A"}, {"measurement": "Final Form", "setting": "[4]; Aw 0.605 (EtOH/H2O 855:145 v/v)", "value": "converted to Form A"}, {"measurement": "Final Form", "setting": "[4]; Aw 0.900 (EtOH/H2O 450:550 v/v)", "value": "converted to Form A"}]}]}
